Experimental data as given in the NIST ThermoML archive (doi:10.1016/j.jct.2017.02.014).

How the values were obtained:
[1] = heat capacity at constant pressure per volume; xn = mol fraction of the nth substance listed; settings: 102.6 kPa, Liquid, DSC, x1 = 0.118
[2] = refractive index (other wavelength) (dimensionless); xn = mol fraction of the nth substance listed; settings: 100 kPa, Liquid, Wavelength=632.8 nm, minimum deviation angle method

CCCC[n+]1ccccc1.F[B-](F)(F)F [1-butylpyridinium tetrafluoroborate] + CCO
[1]
Settings | heat capacity [J/K/m3]
291.64 K | 2400000
291.84 K | 2413000
292.04 K | 2409000
292.24 K | 2412000
292.44 K | 2447000
292.64 K | 2446000
292.84 K | 2430000
293.04 K | 2446000
293.24 K | 2456000
293.44 K | 2452000
293.64 K | 2454000
293.84 K | 2466000
294.04 K | 2479000
294.24 K | 2512000
294.44 K | 2465000
294.64 K | 2512000
294.84 K | 2537000
295.04 K | 2539000
295.24 K | 2557000
295.44 K | 2564000
295.64 K | 2619000
295.84 K | 2578000
296.04 K | 2655000
296.24 K | 2606000
296.44 K | 2659000
296.64 K | 2847000
296.86 K | 2825000
297.04 K | 2338000
297.24 K | 2271000
297.44 K | 2220000
297.64 K | 2228000
297.84 K | 2203000
298.04 K | 2201000
298.24 K | 2198000
298.44 K | 2180000
298.64 K | 2187000
298.84 K | 2145000
299.04 K | 2169000
299.24 K | 2164000
299.44 K | 2169000
299.64 K | 2152000
299.84 K | 2153000
300.04 K | 2150000
300.24 K | 2151000
300.44 K | 2144000
300.64 K | 2130000
300.84 K | 2137000
301.24 K | 2132000
301.44 K | 2139000
301.64 K | 2140000
301.84 K | 2124000
302.04 K | 2130000
302.24 K | 2117000
302.44 K | 2124000
302.64 K | 2130000
302.84 K | 2122000
303.04 K | 2129000
303.24 K | 2131000
303.44 K | 2121000
303.63 K | 2121000
303.83 K | 2127000
304.04 K | 2126000
304.24 K | 2122000
304.44 K | 2130000
304.63 K | 2120000
304.83 K | 2123000
305.04 K | 2117000
305.24 K | 2113000
305.44 K | 2107000
305.63 K | 2112000
306.08 K | 2110000
306.51 K | 2108000
306.95 K | 2108000
307.39 K | 2107000
307.83 K | 2106000
308.26 K | 2106000
308.7 K | 2105000
309.14 K | 2104000
309.58 K | 2104000
310.02 K | 2104000
310.45 K | 2104000
310.89 K | 2105000
311.33 K | 2103000
311.77 K | 2102000
312.2 K | 2102000
312.64 K | 2102000
313.08 K | 2103000
313.52 K | 2101000
313.96 K | 2103000
314.39 K | 2101000
314.83 K | 2103000
315.27 K | 2102000
315.71 K | 2103000
316.14 K | 2102000
316.58 K | 2103000
317.02 K | 2103000
317.46 K | 2103000
317.89 K | 2105000
318.33 K | 2104000
318.77 K | 2106000
319.21 K | 2105000
319.65 K | 2107000
320.08 K | 2107000
320.52 K | 2108000
320.96 K | 2109000
321.4 K | 2109000
321.84 K | 2109000
322.27 K | 2110000
322.71 K | 2111000
323.15 K | 2110000

[2]
Settings | refractive index
281.73 K, x1 = 1 | 1.4481
282.78 K, x1 = 1 | 1.4478
284.05 K, x1 = 0.518 | 1.4307
284.14 K, x1 = 1 | 1.4475
284.68 K, x1 = 0.394 | 1.4224
285.33 K, x1 = 0.518 | 1.4304
285.74 K, x1 = 1 | 1.4471
286.42 K, x1 = 0.394 | 1.4219
286.94 K, x1 = 1 | 1.4468
287.46 K, x1 = 0.02 | 1.3684
287.51 K, x1 = 0.518 | 1.4298
287.68 K, x1 = 0.394 | 1.4215
288.24 K, x1 = 1 | 1.4464
288.69 K, x1 = 0.518 | 1.4295
288.71 K, x1 = 0.02 | 1.3679
289.37 K, x1 = 0.394 | 1.4211
289.38 K, x1 = 1 | 1.4461
289.82 K, x1 = 0.02 | 1.3675
290.14 K, x1 = 0.518 | 1.429
290.31 K, x1 = 0.394 | 1.4207
290.37 K, x1 = 1 | 1.4458
290.46 K, x1 = 0.313 | 1.414
291.26 K, x1 = 0.02 | 1.3669
291.42 K, x1 = 0.394 | 1.4204
291.42 K, x1 = 0.518 | 1.4287
292.08 K, x1 = 0.313 | 1.4134
292.15 K, x1 = 1 | 1.4454
292.64 K, x1 = 0.02 | 1.3663
293.1 K, x1 = 0.313 | 1.4131
293.41 K, x1 = 1 | 1.4451
294.23 K, x1 = 0.313 | 1.4128
294.38 K, x1 = 0.02 | 1.3657
295 K, x1 = 1 | 1.4446
295.32 K, x1 = 0.313 | 1.4124
296.19 K, x1 = 0.258 | 1.4062
296.35 K, x1 = 0.199 | 1.3993
296.35 K, x1 = 0.313 | 1.4121
296.89 K, x1 = 1 | 1.444
296.98 K, x1 = 0.06 | 1.3745
296.98 K, x1 = 0.142 | 1.3902
297.25 K, x1 = 0.095 | 1.3817
297.52 K, x1 = 0.258 | 1.4056
298.06 K, x1 = 0.142 | 1.3899
298.21 K, x1 = 0.06 | 1.374
298.51 K, x1 = 0.199 | 1.3986
298.56 K, x1 = 0.095 | 1.3813
298.9 K, x1 = 0.258 | 1.4052
299.34 K, x1 = 0.142 | 1.3895
299.43 K, x1 = 0.06 | 1.3736
299.58 K, x1 = 0.199 | 1.3982
299.67 K, x1 = 0.095 | 1.3809
299.98 K, x1 = 0.258 | 1.4048
300.34 K, x1 = 0.142 | 1.3892
300.79 K, x1 = 0.095 | 1.3805
300.89 K, x1 = 0.06 | 1.3731
300.95 K, x1 = 0.258 | 1.4046
301.1 K, x1 = 0.199 | 1.3977
301.77 K, x1 = 0.095 | 1.3802
301.77 K, x1 = 0.142 | 1.3886
301.92 K, x1 = 0.258 | 1.4043
302.08 K, x1 = 0.06 | 1.3726
302.16 K, x1 = 0.199 | 1.3974
302.93 K, x1 = 0.095 | 1.3798
302.94 K, x1 = 0.142 | 1.3883
303.3 K, x1 = 0.199 | 1.397
303.31 K, x1 = 0.06 | 1.3722
